This test concerns influx of neutrophils to the lung in LPS-challenged rats. Put plainly: Rat LPS neutrophilia model. The test is classed as in vivo. The following applies: LPS aerosol, intratracheal dosing, in at least one of the range of conditions tested, significance p<0.05. The method, then: Rat LPS Neutrophilia Model
The effect of compounds on the influx of neutrophils to the lung in LPS-challenged rats is evaluated as follows. The test compound is suspended in one of the following solutions: 0.5% tween 80/PBS, 0.5% tween 80/saline, 10% EtOH/saline (with pH adjusted to 2.0, or 8.0 with HCl, or unadjusted), Saline @pH 2.0, 6.5 or 8.0, 0.5% Tragacanth, 1% DMSO/20% Encapsin/Saline, or acidified 5% Tragacanth. The suspension process may be aided by the use of a glass homogenizer. For intratracheal administration, the animals are anesthetized with inhaled isoflurane and placed in a supine position, the trachea is intubated with a steel gavage needle (1.5 inch, 22 gauge, small ball) or a Penn-Century Microsprayer Aerosolizer (model IA-1B) and 200 ul of dosing solution is delivered. The animals are visually monitored during the recovery process, which typically occurs within two minutes. It is noted that the test compounds may be alternatively administered via the microsprayer in a dry powder blend with a suitable excipient, such as lactose.
Rats treated with compound or vehicle (15 min-24 hours pretreatment) are exposed to an LPS aerosol (100 ug/ml) for 15 min. Four hours later the rats are euthanized with pentobarbital (100 mg/kg, i.p.) and the airways are lavaged with 5 washes of 5 ml of phosphate buffered saline. The harvested cells are stained (Diffquick) and counted to determine total and differential cell data. […] Inhibition of neutrophil levels relative to no compound controls is calculated based on the differential counts.
The data is obtained as % inhibition using a particular concentration and pretreat time.

Each structure is given as a SMILES string. “Also recorded” adds a separate entry of the source.

Take `CCCNC(=O)c1ccc(C)c(-c2nc(N3CCC(N)CC3)nc3c2ccc(=O)n3-c2c(F)cccc2F)c1` [Example 69, 3-[2-(4-amino-1-piperidinyl)-8-(2,6-difluorophenyl)-7-oxo-7,8-dihydropyrido[2,3-d]pyrimidin-4-yl]-4-methyl-N-propylbenzamide]: the inhibition of neutrophilia entry is listed as “statistically significant inhibition”.

In the case of `Cc1ccc(C(=O)NC2CCCC2)cc1-c1nc(N2CCC(N)CC2)nc2c1ccc(=O)n2-c1c(F)cccc1F` [Example 70, 3-[2-(4-amino-1-piperidinyl)-8-(2,6-difluorophenyl)-7-oxo-7,8-dihydropyrido[2,3-d]pyrimidin-4-yl]-N-cyclopentyl-4-methylbenzamide], the inhibition of neutrophilia result is reported as “statistically nonsignificant inhibition”.

As to `Cc1ccc(C(=O)NCc2ccccc2)cc1-c1nc(N2CCC(N)CC2)nc2c1ccc(=O)n2-c1c(F)cccc1F` [Example 71, 3-[2-(4-amino-1-piperidinyl)-8-(2,6-difluorophenyl)-7-oxo-7,8-dihydropyrido[2,3-d]pyrimidin-4-yl]-4-methyl-N-(phenylmethyl)benzamide], the inhibition of neutrophilia entry is reported as “statistically nonsignificant inhibition”.

As for `Cc1ccc(C(=O)Nc2ccc(F)cc2)cc1-c1nc(N2CCC(N)CC2)nc2c1ccc(=O)n2-c1c(F)cccc1F` [Example 72, 3-[2-(4-amino-1-piperidinyl)-8-(2,6-difluorophenyl)-7-oxo-7,8-dihydropyrido[2,3-d]pyrimidin-4-yl]-N-(4-fluorophenyl)-4-methylbenzamide], the inhibition of neutrophilia entry was “statistically significant inhibition”.

Regarding `Cc1ccc(C(=O)Nc2nccs2)cc1-c1nc(N2CCC(N)CC2)nc2c1ccc(=O)n2-c1c(F)cccc1F` [Example 73, 3-[2-(4-amino-1-piperidinyl)-8-(2,6-difluorophenyl)-7-oxo-7,8-dihydropyrido[2,3-d]pyrimidin-4-yl]-4-methyl-N-1,3-thiazol-2-ylbenzamide], the inhibition of neutrophilia entry is “statistically significant inhibition”.

Turning to `Cc1ccc(C(=O)NC2CCCC2)cc1-c1nc(NCc2ncc[nH]2)nc2c1ccc(=O)n2-c1c(F)cccc1F` [Example 76, N-cyclopentyl-3-{8-(2,6-difluorophenyl)-2-[(1H-imidazol-2-ylmethyl)amino]-7-oxo-7,8-dihydropyrido[2,3-d]pyrimidin-4-yl}-4-methylbenzamide], the inhibition of neutrophilia entry is listed as “statistically nonsignificant inhibition”.

As for `Cc1ccc(C(=O)NCc2ccccc2)cc1-c1nc(NCc2ncc[nH]2)nc2c1ccc(=O)n2-c1c(F)cccc1F` [Example 77, 3-{8-(2,6-difluorophenyl)-2-[(1H-imidazol-2-ylmethyl)amino]-7-oxo-7,8-dihydropyrido[2,3-d]pyrimidin-4-yl}-4-methyl-N-(phenylmethyl)benzamide], the inhibition of neutrophilia entry was “statistically significant inhibition”.

In the case of `Cc1ccc(C(=O)Nc2ccc(F)cc2)cc1-c1nc(NCc2ncc[nH]2)nc2c1ccc(=O)n2-c1c(F)cccc1F` [Example 78, 3-{8-(2,6-difluorophenyl)-2-[(1H-imidazol-2-ylmethyl)amino]-7-oxo-7,8-dihydropyrido[2,3-d]pyrimidin-4-yl}-N-(4-fluorophenyl)-4-methylbenzamide], the inhibition of neutrophilia entry is “statistically significant inhibition”.

Regarding `Cc1ccc(C(=O)Nc2ccc(F)cc2)cc1-c1nc(NCCN(C)C(=O)OC(C)(C)C)nc2c1ccc(=O)n2-c1c(F)cccc1F` [Example 95, 1,1-dimethylethyl(2-{[8-(2,6-difluorophenyl)-4-(5-{[(4-fluorophenyl)amino]carbonyl}-2-methylphenyl)-7-oxo-7,8-dihydropyrido[2,3-d]pyrimidin-2-yl]amino}ethyl)methylcarbamate], the inhibition of neutrophilia entry is reported as “statistically nonsignificant inhibition”.

As to `Cc1ccc(C(=O)Nc2ccc(F)cc2)cc1-c1nc(N(C)CCN(C)C)nc2c1ccc(=O)n2-c1c(F)cccc1F` [Example 99, 3-{8-(2,6-difluorophenyl)-2-[[2-(dimethylamino)ethyl](methyl)amino]-7-oxo-7,8-dihydropyrido[2,3-d]pyrimidin-4-yl}-N-(4-fluorophenyl)-4-methylbenzamide], the inhibition of neutrophilia result was “statistically nonsignificant inhibition”.

On to `Cc1ccc(C(=O)Nc2nccs2)cc1-c1nc(NCCCNC(C)C)nc2c1ccc(=O)n2-c1c(F)cccc1F` [Example 101, 3-[8-(2,6-difluorophenyl)-2-({3-[(1-methylethyl)amino]propyl}amino)-7-oxo-7,8-dihydropyrido[2,3-d]pyrimidin-4-yl]-4-methyl-N-1,3-thiazol-2-ylbenzamide], for which the inhibition of neutrophilia entry is reported as “statistically significant inhibition”.

Consider `Cc1ccc(C(=O)Nc2nccs2)cc1-c1nc(NCCCNC(C)(C)C)nc2c1ccc(=O)n2-c1c(F)cccc1F` [Example 102, 3-[8-(2,6-difluorophenyl)-2-({3-[(1,1-dimethylethyl)amino]propyl}amino)-7-oxo-7,8-dihydropyrido[2,3-d]pyrimidin-4-yl]-4-methyl-N-1,3-thiazol-2-ylbenzamide], for which the inhibition of neutrophilia result is “statistically nonsignificant inhibition”.

`Cc1ccc(C(=O)Nc2nccs2)cc1-c1nc(NCCNC(C)C)nc2c1ccc(=O)n2-c1c(F)cccc1F` [Example 103, 3-[8-(2,6-difluorophenyl)-2-({2-[(1-methylethyl)amino]ethyl}amino)-7-oxo-7,8-dihydropyrido[2,3-d]pyrimidin-4-yl]-4-methyl-N-1,3-thiazol-2-ylbenzamide]: the inhibition of neutrophilia entry is on record as “statistically significant inhibition”.

For `Cc1ccc(C(=O)Nc2nccs2)cc1-c1nc(N(C)CCCN(C)C)nc2c1ccc(=O)n2-c1c(F)cccc1F` [Example 107, 3-{8-(2,6-difluorophenyl)-2-[[3-(dimethylamino)propyl](methyl)amino]-7-oxo-7,8-dihydropyrido[2,3-d]pyrimidin-4-yl}-4-methyl-N-1,3-thiazol-2-ylbenzamide], the inhibition of neutrophilia result is reported as “statistically significant inhibition”.

On to `Cc1ccc(C(=O)Nc2nccs2)cc1-c1nc(NCCN(C)C)nc2c1ccc(=O)n2-c1c(F)cccc1F` [Example 109, 3-(8-(2,6-difluorophenyl)-2-{[2-(dimethylamino)ethyl]amino}-7-oxo-7,8-dihydropyrido[2,3-d]pyrimidin-4-yl)-4-methyl-N-1,3-thiazol-2-ylbenzamide], for which the inhibition of neutrophilia entry is reported as “statistically significant inhibition”.

For `Cc1ccc(C(=O)Nc2ccc(F)cc2)cc1-c1nc(NCCN(C)C)nc2c1ccc(=O)n2-c1c(F)cccc1F` [Example 112, 3-(8-(2,6-difluorophenyl)-2-{[2-(dimethylamino)ethyl]amino}-7-oxo-7,8-dihydropyrido[2,3-d]pyrimidin-4-yl)-N-(4-fluorophenyl)-4-methylbenzamide], the inhibition of neutrophilia entry is given as “statistically nonsignificant inhibition”.

With `Cc1ccc(C(=O)NC(C)C)cc1-c1nc(NCCN(C)C)nc2c1ccc(=O)n2-c1c(F)cccc1F` [Example 117, 3-(8-(2,6-difluorophenyl)-2-{[2-(dimethylamino)ethyl]amino}-7-oxo-7,8-dihydropyrido[2,3-d]pyrimidin-4-yl)-4-methyl-N-(1-methylethyl)benzamide], the inhibition of neutrophilia entry is listed as “statistically significant inhibition”.

As for `CCN(CC)CCCNc1nc(-c2cc(C(=O)NC)ccc2C)c2ccc(=O)n(-c3c(F)cccc3F)c2n1` [Example 119, 3-[2-{[3-(diethylamino)propyl]amino}-8-(2,6-difluorophenyl)-7-oxo-7,8-dihydropyrido[2,3-d]pyrimidin-4-yl]-N,4-dimethylbenzamide], the inhibition of neutrophilia entry was “statistically significant inhibition”.

Regarding `CCN(CC)CCCNc1nc(-c2cc(C(=O)N(C)C)ccc2C)c2ccc(=O)n(-c3c(F)cccc3F)c2n1` [Example 120, 3-[2-{[3-(diethylamino)propyl]amino}-8-(2,6-difluorophenyl)-7-oxo-7,8-dihydropyrido[2,3-d]pyrimidin-4-yl]-N,N,4-trimethylbenzamide], the inhibition of neutrophilia entry was “statistically nonsignificant inhibition; also recorded: inactive”.

Regarding `CCCNC(=O)c1ccc(C)c(-c2nc(NCCCN(CC)CC)nc3c2ccc(=O)n3-c2c(F)cccc2F)c1` [Example 122, 3-[2-{[3-(diethylamino)propyl]amino}-8-(2,6-difluorophenyl)-7-oxo-7,8-dihydropyrido[2,3-d]pyrimidin-4-yl]-4-methyl-N-propylbenzamide], the inhibition of neutrophilia entry is given as “statistically nonsignificant inhibition”.

Take `CCN(CC)CCCNc1nc(-c2cc(C(=O)NCC(C)C)ccc2C)c2ccc(=O)n(-c3c(F)cccc3F)c2n1` [Example 124, 3-[2-{[3-(diethylamino)propyl]amino}-8-(2,6-difluorophenyl)-7-oxo-7,8-dihydropyrido[2,3-d]pyrimidin-4-yl]-4-methyl-N-(2-methylpropyl)benzamide]: the inhibition of neutrophilia result is listed as “statistically significant inhibition”.

The values are drawn from US20100144755A1 (Glaxo Group Limited, priority 2006, published 2010).
